Measurements published in the supplement of paper PMC10307832.

How the values were obtained:
Assay in all cases: relative viability (nuclei count vs DMSO), 5 days (fraction); higher = more cells survive
SK-MES-1 = system: SK-MES-1
Method in brief: (§1)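 Nuclei were stained with Hoechst during a one-step fixation (final 0.05% Triton X-100, 1% formaldehyde, 1 ug/ml Hoechst) carried out 5 days after dosing, then counted on 4× images. The cells, lung cancer lines in 1536-well plates, had been dosed by pin tool the day after seeding with one drug alone or a fixed anchor-drug dose plus five library-drug doses (not always all listed) in √10 steps. Relative viability is the nuclei count in treated wells divided by that in vehicle wells, and each value is the median of duplicate plates.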

LU99A = system: LU99A
Method in brief: as §1

NCI-H2087 = system: NCI-H2087
Method in brief: as §1

LK-2 = system: LK-2
Method in brief: as §1

ChaGo-K-1 = system: ChaGo-K-1
Method in brief: as §1

NCI-H1944 = system: NCI-H1944
Method in brief: as §1

NCI-H650 = system: NCI-H650
Method in brief: as §1

NCI-H661 = system: NCI-H661
Method in brief: as §1

HCC-78 = system: HCC-78
Method in brief: as §1

LC-2-ad = system: LC-2-ad
Method in brief: as §1

NCI-H838 = system: NCI-H838
Method in brief: as §1

NCI-H358 = system: NCI-H358
Method in brief: as §1

PC-3 [JPC-3] = system: PC-3 [JPC-3]
Method in brief: as §1

NCI-H1651 = system: NCI-H1651
Method in brief: as §1

LCLC-97TM1 = system: LCLC-97TM1
Method in brief: as §1

NCI-H1975 = system: NCI-H1975
Method in brief: as §1

NCI-H1355 = system: NCI-H1355
Method in brief: as §1

NCI-H2342 = system: NCI-H2342
Method in brief: as §1

LXF-289 = system: LXF-289
Method in brief: as §1

BEN = system: BEN
Method in brief: as §1

NCI-H1666 = system: NCI-H1666
Method in brief: as §1

`Nc1ccn([C@@H]2O[C@H](CO)[C@@H](O)[C@@H]2O)c(=O)n1` [Cytarabine] + CC(=O)c1c(C)c2cnc(Nc3ccc(N4CCNCC4)cn3)nc2n(C2CCCC2)c1=O [Palbociclib] (partner 0.5 µM) showed a relative viability (SK-MES-1; first compound 0.005 µM) of 0.297, a relative viability (SK-MES-1; first compound 0.01581 µM) of 0.265 and a relative viability (SK-MES-1; first compound 0.05 µM) of 0.253. For the same compound, the relative viability (SK-MES-1; first compound 0.1581 µM) was 0.246, the relative viability (SK-MES-1; first compound 0.5 µM) was 0.223 and the relative viability (LU99A; first compound 0.005 µM) was 0.409. It also gave a relative viability (LU99A; first compound 0.01581 µM) of 0.399, a relative viability (LU99A; first compound 0.05 µM) of 0.391 and a relative viability (LU99A; first compound 0.1581 µM) of 0.388. It also gave a relative viability (LU99A; first compound 0.5 µM) of 0.288, a relative viability (NCI-H2087; first compound 0.005 µM) of 0.23 and a relative viability (NCI-H2087; first compound 0.01581 µM) of 0.215. The relative viability (NCI-H2087; first compound 0.05 µM) was 0.231, the relative viability (NCI-H2087; first compound 0.1581 µM) was 0.167 and the relative viability (NCI-H2087; first compound 0.5 µM) was 0.205. For the same compound, the relative viability (LK-2; first compound 0.005 µM) was 0.634, the relative viability (LK-2; first compound 0.01581 µM) was 0.267 and the relative viability (LK-2; first compound 0.05 µM) was 0.233. The relative viability (LK-2; first compound 0.1581 µM) was 0.14, the relative viability (LK-2; first compound 0.5 µM) was 0.107 and the relative viability (ChaGo-K-1; first compound 0.005 µM) was 0.71. It also gave a relative viability (ChaGo-K-1; first compound 0.01581 µM) of 0.598, a relative viability (ChaGo-K-1; first compound 0.05 µM) of 0.461 and a relative viability (ChaGo-K-1; first compound 0.1581 µM) of 0.276. The relative viability (ChaGo-K-1; first compound 0.5 µM) was 0.229, the relative viability (NCI-H1944; first compound 0.005 µM) was 0.283 and the relative viability (NCI-H1944; first compound 0.01581 µM) was 0.248. The relative viability (NCI-H1944; first compound 0.05 µM) was 0.207, the relative viability (NCI-H1944; first compound 0.1581 µM) was 0.205 and the relative viability (NCI-H1944; first compound 0.5 µM) was 0.16. The relative viability (NCI-H650; first compound 0.005 µM) was 0.238, the relative viability (NCI-H650; first compound 0.01581 µM) was 0.227 and the relative viability (NCI-H650; first compound 0.05 µM) was 0.159. For the same compound, the relative viability (NCI-H650; first compound 0.1581 µM) was 0.157, the relative viability (NCI-H650; first compound 0.5 µM) was 0.175 and the relative viability (NCI-H661; first compound 0.005 µM) was 0.429. For the same compound, the relative viability (NCI-H661; first compound 0.01581 µM) was 0.393, the relative viability (NCI-H661; first compound 0.05 µM) was 0.377 and the relative viability (NCI-H661; first compound 0.1581 µM) was 0.353. It also gave a relative viability (NCI-H661; first compound 0.5 µM) of 0.251, a relative viability (HCC-78; first compound 0.005 µM) of 0.492 and a relative viability (HCC-78; first compound 0.01581 µM) of 0.42. It also gave a relative viability (HCC-78; first compound 0.05 µM) of 0.393, a relative viability (HCC-78; first compound 0.1581 µM) of 0.366 and a relative viability (HCC-78; first compound 0.5 µM) of 0.361. The relative viability (LC-2-ad; first compound 0.005 µM) was 0.412, the relative viability (LC-2-ad; first compound 0.01581 µM) was 0.417 and the relative viability (LC-2-ad; first compound 0.05 µM) was 0.505. The relative viability (LC-2-ad; first compound 0.1581 µM) was 0.379, the relative viability (LC-2-ad; first compound 0.5 µM) was 0.412 and the relative viability (NCI-H838; first compound 0.005 µM) was 0.228. The relative viability (NCI-H838; first compound 0.01581 µM) was 0.244, the relative viability (NCI-H838; first compound 0.05 µM) was 0.209 and the relative viability (NCI-H838; first compound 0.1581 µM) was 0.2. It also gave a relative viability (NCI-H838; first compound 0.5 µM) of 0.149, a relative viability (NCI-H358; first compound 0.005 µM) of 0.126 and a relative viability (NCI-H358; first compound 0.01581 µM) of 0.115. The relative viability (NCI-H358; first compound 0.05 µM) was 0.0934, the relative viability (NCI-H358; first compound 0.1581 µM) was 0.0712 and the relative viability (NCI-H358; first compound 0.5 µM) was 0.0692. For the same compound, the relative viability (PC-3 [JPC-3]; first compound 0.005 µM) was 0.546, the relative viability (PC-3 [JPC-3]; first compound 0.01581 µM) was 0.479 and the relative viability (PC-3 [JPC-3]; first compound 0.05 µM) was 0.489. For the same compound, the relative viability (PC-3 [JPC-3]; first compound 0.1581 µM) was 0.459, the relative viability (PC-3 [JPC-3]; first compound 0.5 µM) was 0.463 and the relative viability (NCI-H1651; first compound 0.005 µM) was 0.508. It also gave a relative viability (NCI-H1651; first compound 0.01581 µM) of 0.514, a relative viability (NCI-H1651; first compound 0.05 µM) of 0.551 and a relative viability (NCI-H1651; first compound 0.1581 µM) of 0.374. The relative viability (NCI-H1651; first compound 0.5 µM) was 0.277, the relative viability (LCLC-97TM1; first compound 0.005 µM) was 0.186 and the relative viability (LCLC-97TM1; first compound 0.01581 µM) was 0.135. The relative viability (LCLC-97TM1; first compound 0.05 µM) was 0.198, the relative viability (LCLC-97TM1; first compound 0.1581 µM) was 0.124 and the relative viability (LCLC-97TM1; first compound 0.5 µM) was 0.0884. For the same compound, the relative viability (NCI-H1975; first compound 0.005 µM) was 0.453, the relative viability (NCI-H1975; first compound 0.01581 µM) was 0.574 and the relative viability (NCI-H1975; first compound 0.05 µM) was 0.46. It also gave a relative viability (NCI-H1975; first compound 0.1581 µM) of 0.283, a relative viability (NCI-H1975; first compound 0.5 µM) of 0.212 and a relative viability (NCI-H1355; first compound 0.005 µM) of 0.595. For the same compound, the relative viability (NCI-H1355; first compound 0.01581 µM) was 0.325, the relative viability (NCI-H1355; first compound 0.05 µM) was 0.396 and the relative viability (NCI-H1355; first compound 0.1581 µM) was 0.28. The relative viability (NCI-H1355; first compound 0.5 µM) was 0.232, the relative viability (NCI-H2342; first compound 0.005 µM) was 0.525 and the relative viability (NCI-H2342; first compound 0.01581 µM) was 0.557. It also gave a relative viability (NCI-H2342; first compound 0.05 µM) of 0.502, a relative viability (NCI-H2342; first compound 0.1581 µM) of 0.467 and a relative viability (NCI-H2342; first compound 0.5 µM) of 0.435. It also gave a relative viability (LXF-289; first compound 0.005 µM) of 0.49, a relative viability (LXF-289; first compound 0.01581 µM) of 0.563 and a relative viability (LXF-289; first compound 0.05 µM) of 0.511. It also gave a relative viability (LXF-289; first compound 0.1581 µM) of 0.296, a relative viability (LXF-289; first compound 0.5 µM) of 0.287 and a relative viability (BEN; first compound 0.005 µM) of 0.481. It also gave a relative viability (BEN; first compound 0.01581 µM) of 0.431, a relative viability (BEN; first compound 0.05 µM) of 0.458 and a relative viability (BEN; first compound 0.1581 µM) of 0.377. It also gave a relative viability (BEN; first compound 0.5 µM) of 0.286, a relative viability (NCI-H1666; first compound 0.005 µM) of 0.611 and a relative viability (NCI-H1666; first compound 0.01581 µM) of 0.573. The relative viability (NCI-H1666; first compound 0.05 µM) was 0.627, the relative viability (NCI-H1666; first compound 0.1581 µM) was 0.511 and the relative viability (NCI-H1666; first compound 0.5 µM) was 0.575.
